These are literature values, as cited in patent publication US20190161439A1, “MARINE SESSILE ORGANISM-REPELLING COMPOSITION” (BASSERU CHEMICAL CO., LTD., priority 2015, published 2019).

This data set relates to Barnacle. Particulars: reported values.

In the case of `CC(=O)O[C@H]1CC[C@](C)(C#N)CC1` [AF-034], the “concentration corresponding to the 50% adhesion inhibition rate to Barnacle (EC50)” value is 0.0084 µg/mL.
In the case of `[C-]#[N+]C(C)(C)CCCCCCCCC=C` [AF-035], the “concentration corresponding to the 50% adhesion inhibition rate to Barnacle (EC50)” value is 0.03 µg/mL.
